Among the data in PubChem BioAssay (NCI) are GI50 and TGI values, retold here.

Test systems include TK-10 renal; MOLT-4 leukemia; SK-MEL-2 melanoma; HT29 colon; A549 NSCLC; SF-295 CNS; NCI-H226 lung; A498 renal.
Assay in all cases: NCI anticancer screen, dose series, 48 h

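96-well plates; 48 h exposure; 5 concentrations. Endpoints by linear interpolation between flanking doses. Not reached: highest tested concentration assigned. GI50: concentration for 50% inhibition of growth. TGI marks complete inhibition of growth.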

Take `COc1cc2c(c(OC)c1OC)-c1ccc(O)cc1[C@@H](NC(C)=O)CC2`: the GI50 with TK-10 renal is 0.0406 µM; with MOLT-4 leukemia it was 0.0578 µM; in the assay with SK-MEL-2 melanoma, 0.0423 µM; in the assay on HT29 colon, 0.0339 µM; in the assay with A549 NSCLC, 0.0666 µM; in the assay with SF-295 CNS, 0.0341 µM. Besides, the figures for the GI50 with NCI-H226 lung and with A498 renal were 0.117 µM and 0.0269 µM, respectively. The TGI in the assay with TK-10 renal was greater than 100 µM; with SK-MEL-2 melanoma, greater than 100 µM; with HT29 colon, 0.141 µM; in the assay with A549 NSCLC it was greater than 100 µM; in the assay on SF-295 CNS, greater than 100 µM; with NCI-H226 lung it was greater than 100 µM. For the same molecule, the TGI in the assay on A498 renal worked out at 0.0956 µM.
Take `CO[C@H]1C=CO[C@@]2(C)Oc3c(C)c(O)c4c(O)c(c(CN5CCN(C)CC5)c(O)c4c3C2=O)NC(=O)/C(C)=C\C=C[C@H](C)[C@H](O)C(C)[C@@H](O)C(C)[C@H](OC(C)=O)[C@@H]1C` (some centres not stated): the TGI with TK-10 renal is greater than 100 µM; with MOLT-4 leukemia, 49.1 µM; in the assay on SK-MEL-2 melanoma, greater than 100 µM; in the assay on HT29 colon it was greater than 100 µM; in the assay with A549 NSCLC, greater than 100 µM; in the assay with SF-295 CNS, greater than 100 µM. In addition, the TGI with NCI-H226 lung and in the assay on A498 renal was greater than 100 µM in each case.
In the case of `CN(CCCCCl)P(=O)(OCCS(=O)(=O)CC(NC(=O)CCC(N)C(=O)O)C(=O)NC(C(=O)O)c1ccccc1)OCC1OC(n2ccc(N)nc2=O)C(O)C1O` (configuration not stated), the GI50 is 73.4 µM in the assay with TK-10 renal; 0.851 µM with MOLT-4 leukemia; greater than 75 µM in the assay on SK-MEL-2 melanoma; 32.2 µM in the assay with HT29 colon; 4.45 µM in the assay on A549 NSCLC; greater than 58.8 µM in the assay on SF-295 CNS. The GI50 is greater than 70.7 µM in the assay on NCI-H226 lung and greater than 55.1 µM in the assay with A498 renal. Besides, the TGI in the assay with TK-10 renal is greater than 75 µM; in the assay with MOLT-4 leukemia, greater than 31.8 µM; with SK-MEL-2 melanoma, greater than 75 µM; in the assay with HT29 colon, greater than 75 µM; in the assay with A549 NSCLC, greater than 75 µM; with SF-295 CNS, greater than 75 µM. In addition, the TGI in the assay on NCI-H226 lung and in the assay on A498 renal was greater than 75 µM throughout.
As for `COC1C(O)CC(OC2CC(OC3CC(O[C@@H]4C(=O)c5c(cc6cc(OC7CC(OC8CC(O)C(O)C(C)O8)C(O)C(C)O7)c(C)c(O)c6c5O)CC4[C@H](OC)C(=O)O)OC(C)C3O)OC(C)C2O)OC1C` (some centres not stated), the GI50 in the assay on TK-10 renal is 4.56 µM; with MOLT-4 leukemia it was 2.08 µM; in the assay on SK-MEL-2 melanoma, 1.47 µM; in the assay on HT29 colon it was 2.55 µM; in the assay on A549 NSCLC it was 1.66 µM; with SF-295 CNS, 0.97 µM. Besides, the results for the GI50 in the assay on NCI-H226 lung and with A498 renal were 1.15 µM and 0.725 µM, respectively. In addition, the TGI in the assay on TK-10 renal is greater than 33.3 µM; in the assay with MOLT-4 leukemia, greater than 33.3 µM; in the assay with SK-MEL-2 melanoma it was 10.6 µM; with HT29 colon it was 17.9 µM; in the assay on A549 NSCLC, greater than 33.3 µM; with SF-295 CNS, greater than 33.3 µM. For the same molecule, the figures for the TGI in the assay with NCI-H226 lung and with A498 renal were 9.72 µM and 2.6 µM, respectively.
`CC1=CC(C)=NN=C(N)N1S(=O)(=O)c1cc(C)c(Cl)cc1SCc1ccccc1`: the GI50 in the assay on TK-10 renal was greater than 100 µM; with MOLT-4 leukemia, 6.18 µM; in the assay on SK-MEL-2 melanoma, 37.2 µM; in the assay on HT29 colon, 24.5 µM; in the assay with A549 NSCLC it was 31.3 µM; in the assay with SF-295 CNS, 34.3 µM. Further, the GI50 was 58.5 µM in the assay on NCI-H226 lung and greater than 100 µM in the assay with A498 renal. Further, the TGI in the assay with TK-10 renal, in the assay on MOLT-4 leukemia, in the assay with SK-MEL-2 melanoma, with HT29 colon, in the assay with A549 NSCLC and in the assay with SF-295 CNS was greater than 100 µM in each case. The TGI in the assay with NCI-H226 lung and in the assay with A498 renal was greater than 100 µM each time.
In the case of `CSc1c(C2=C(c3cn(C)c4ccccc34)C(=O)NC2=O)c2ccccc2n1C`, the GI50 in the assay on TK-10 renal was 0.606 µM; in the assay with MOLT-4 leukemia, 1.43 µM; in the assay on SK-MEL-2 melanoma, 0.689 µM; with HT29 colon, 0.814 µM; in the assay on A549 NSCLC, 1.14 µM; with SF-295 CNS, 0.671 µM. Further, the values for the GI50 with NCI-H226 lung and with A498 renal were 3.21 µM and 0.376 µM, respectively. Further, the TGI in the assay with TK-10 renal is greater than 25 µM; in the assay on MOLT-4 leukemia, 8.78 µM; in the assay on SK-MEL-2 melanoma, 5.37 µM; with HT29 colon it was greater than 25 µM; in the assay on A549 NSCLC it was greater than 25 µM; in the assay with SF-295 CNS it was greater than 25 µM. Further, the TGI with NCI-H226 lung was greater than 25 µM; with A498 renal it was 2.11 µM.
For the molecule `Oc1ccc(Nc2ccc3ccccc3c2)cc1`, the GI50 in the assay on TK-10 renal is 4.22 µM; in the assay with MOLT-4 leukemia, 2.75 µM; in the assay with SK-MEL-2 melanoma it was 15.3 µM; in the assay on HT29 colon it was 23 µM; in the assay with A549 NSCLC it was 4.84 µM; in the assay on SF-295 CNS, 2.13 µM. The GI50 with NCI-H226 lung is 19 µM; in the assay with A498 renal, 4.1 µM. The TGI in the assay with TK-10 renal was determined as 42.3 µM; with MOLT-4 leukemia, 32.1 µM; in the assay on SK-MEL-2 melanoma, 46 µM; with HT29 colon it was 65.8 µM; in the assay with A549 NSCLC, 27 µM; in the assay on SF-295 CNS, 6.29 µM. Also, the TGI with NCI-H226 lung worked out at 49.5 µM; in the assay with A498 renal, 23.2 µM.
`CC(=O)OC1CCC2(C)C(CCC3C2CC(=O)C2(C)C3CC(N3CC3)C2C(C)=O)C1` (configuration not stated): the TGI with TK-10 renal is 45.3 µM; with MOLT-4 leukemia, 34.4 µM; in the assay on SK-MEL-2 melanoma, 36.1 µM; with HT29 colon, greater than 100 µM; in the assay on A549 NSCLC it was greater than 100 µM; with SF-295 CNS it was 51 µM. In addition, the TGI in the assay with NCI-H226 lung was 37.8 µM; in the assay with A498 renal, 53.9 µM.
Regarding `CC/C=C\C[C@H](F)C/C=C1/C(=O)C=C[C@@H]1C/C=C\CCCC(=O)OC`, the GI50 with TK-10 renal was 7.09 µM; with MOLT-4 leukemia, 1.45 µM; in the assay on SK-MEL-2 melanoma, 4.88 µM; in the assay with HT29 colon, 1.69 µM; in the assay on A549 NSCLC, 1.99 µM; with SF-295 CNS, 2.24 µM. The values for the GI50 in the assay with NCI-H226 lung and in the assay on A498 renal were 22.2 µM and 9.41 µM, respectively. Moreover, the TGI with TK-10 renal was 16.2 µM; in the assay with MOLT-4 leukemia, 5.27 µM; with SK-MEL-2 melanoma, 13 µM; in the assay with HT29 colon, 4.67 µM; with A549 NSCLC, 10.5 µM; in the assay with SF-295 CNS, 8.3 µM. For the same molecule, the TGI is 44.6 µM in the assay on NCI-H226 lung and 17.2 µM in the assay with A498 renal.
